# Measurements published in PMC6736568, “Discovery of Novel Anti-cryptosporidial Activities From Natural Products by in vitro High-Throughput Phenotypic Screening” (Frontiers in Microbiology, 2019).
# Where a name gives a salt, the structure may show the parent alone. Read-outs that look alike come from different tables or passages of the source.
# Key:
# Cryptosporidium parvum = assay: qRT-PCR assay of the growth of C. parvum in vitro in HCT-8 host cells (primary and secondary screening, EC50); type: cell-based; settings: Cryptosporidium parvum, HCT-8; for inhibition at 3.3 µM: secondary screening at 3.3 uM, read-out: % Inhibition (3.3 uM)
# [1] = primary screening at 10 uM, read-out: Inhibition (%)
# [2] = primary screening at 10 uM, treated vs control
Structure (SMILES),inhibition at 10 µM (Cryptosporidium parvum; [1]) [%],"Hs18S ΔCT (HCT-8 host cells (Hs18S); human, 41 h, 10 μM)","cytotoxicity at 41 h, 10 µM (in vitro; human) [%]",other results
O=c1ccn([C@@H]2O[C@H](CO)[C@@H](O)[C@H]2O)c(=O)[nH]1 [URIDINE],44.8,0.02,1.4,–
O=C(/C=C/c1ccc(O)cc1)c1ccc(O)cc1O [ISOLIQUIRITIGENIN],52.9,-0.34,-26.4,–
COc1ccc2c(c1OC)C(=O)O[C@@H]2[C@H]1c2c(cc3c(c2OC)OCO3)CCN1C [NOSCAPINE HYDROCHLORIDE],-51.6,0.30,18.9,–
COc1ccc2cc1Oc1ccc(cc1)C[C@H]1c3c(cc4c(c3Oc3cc5c(cc3OC)CCN(C)[C@@H]5C2)OCO4)CCN1C [CEPHARANTHINE],16.8,0.33,20.5,–
"CCOC(=O)C1C(C=C(C)C)C1(C)C (stereo not drawn) [CHRYSANTHEMIC ACID, ETHYL ESTER]",24.6,–,–,"inhibition at 3.3 µM (Cryptosporidium parvum): 91%; Hs18S ΔCT (HCT-8 host cells (Hs18S); [2]): -0.97; cytotoxicity at 41 h, 10 µM (in vitro): -95.7%"
C[C@@H]1CC[C@@]2(OC1)O[C@H]1C[C@H]3[C@@H]4CC[C@H]5C[C@@H](O)CC[C@]5(C)[C@H]4CC[C@]3(C)[C@H]1[C@@H]2C [TIGOGENIN],15.4,–,–,"Hs18S ΔCT (HCT-8 host cells (Hs18S); [2]): -0.40; cytotoxicity at 41 h, 10 µM (in vitro): -31.8%"
Cn1c(=O)c2[nH]cnc2n(C)c1=O [THEOPHYLLINE],20.5,–,–,Hs18S ΔCT (HCT-8 host cells (Hs18S); [2]): -0.29; cytotoxicity at 10 µM (in vitro): -22.6%
"COC(=O)C(O)c1ccccc1 (stereo not drawn) [MANDELIC ACID, METHYL ESTER]",-2.26,0.31,19.1,–
C[C@@H]1C(=O)O[C@H]2C[C@@]34[C@H]5C[C@@H](C(C)(C)C)[C@]36[C@@H](OC(=O)[C@@H]6O)O[C@@]4(C(=O)O5)[C@]21O [GINKGOLIDE A],37.5,–,–,Hs18S ΔCT (HCT-8 host cells (Hs18S); [2]): 0.10; cytotoxicity at 10 µM (in vitro): 6.6%
CC(C)c1ccc2c(c1O)CC[C@H]1C3=C(CC[C@]21C)C(=O)OC3 [TRIPTOPHENOLIDE],-24.5,-0.29,-22.1,–
CC(C)(O)[C@@H]1[C@H]2OC(=O)[C@@H]1[C@]1(O)C[C@H]3O[C@]34C(=O)O[C@H]2[C@]14C [PICROTIN],-1.94,–,–,Hs18S ΔCT (HCT-8 host cells (Hs18S); [2]): -0.20; cytotoxicity at 10 µM (in vitro): -14.8%
C=CCN=C=S [ALLYLISOTHIOCYANATE],25.7,0.28,17.7,–
CO[C@@H]1[C@@H](OC(N)=O)[C@@H](O)[C@H](Oc2ccc3c(O)c(NC(=O)c4ccc(O)c(CC=C(C)C)c4)c(=O)oc3c2C)OC1(C)C [NOVOBIOCIN SODIUM],-13.6,0.10,6.5,–
COc1cc(C(C)=O)cc(OC)c1O [ACETOSYRINGONE],-26.9,-0.06,-4,–
O=C(O)/C=C(\CC(=O)O)C(=O)O [ACONITIC ACID],-3.59,-0.01,-0.7,–
COc1c(O)cc(O)cc1O [IRETOL],-15,-0.32,-24.7,–
CC1(C)CC23C(=O)CCC(O)C2(C)CCC13 (stereo not drawn) [3-NOR-3-OXOPANASINSAN-6-OL],23.9,0.24,15.3,–
C=C(C)[C@H]1CC=C(C)CC1 [d-LIMONENE],-6.54,-0.21,-15.7,–
C[C@H](CCC(=O)O)[C@H]1CC[C@H]2[C@@H]3C(=O)C[C@@H]4CC(=O)CC[C@]4(C)[C@H]3CC(=O)[C@]12C [DEHYDROCHOLIC ACID],-24.5,-0.06,-4.2,–
CC1(C)[C@@H](O)CC[C@]2(C)[C@H]3C(=O)C=C4[C@@H]5C[C@@](C)(C(=O)O)CC[C@]5(C)CC[C@@]4(C)[C@]3(C)CC[C@@H]12 [ENOXOLONE],-8.81,-0.07,-5.3,–

Structure (SMILES),inhibition at 10 µM (Cryptosporidium parvum; [1]) [%],"Hs18S ΔCT (HCT-8 host cells (Hs18S); human, 41 h, 10 μM)","cytotoxicity at 41 h, 10 µM (in vitro; human) [%]",other results
N=C(N)NOCC[C@H](N)C(=O)O [CANAVANINE],-3.4,–,–,Hs18S ΔCT (HCT-8 host cells (Hs18S); [2]): 0.29; cytotoxicity at 10 µM (in vitro): 18.4%
CCCCC[C@H](CC(=O)NO)C(=O)N[C@H](C(=O)N1CCC[C@H]1CO)C(C)C [ACTINONIN],31.3,-0.06,-4.6,–
C=C[C@](C)(O)CC[C@@H]1[C@@]2(C)CCCC(C)(C)[C@@H]2CC[C@@]1(C)O [SCLAREOL],7.29,-0.15,-10.7,–
OC[C@@H](O)[C@@H](O)[C@H](O)[C@@H](O)CO [SORBITOL],-33.8,-0.18,-13.2,–
NCCCCN [PUTRESCINE DIHYDROCHLORIDE],–,–,–,inhibition at 10 µM (Cryptosporidium parvum): 28.7%; Hs18S ΔCT (HCT-8 host cells (Hs18S)): -0.04; cytotoxicity at 10 µM (in vitro): -3%
NC(Cn1ccc(=O)c(O)c1)C(=O)O (stereo not drawn) [MIMOSINE],-22,-0.01,-0.4,–
NC(=O)c1cccnc1 [NIACINAMIDE],-9.59,-0.05,-3.6,–
C=CC1=C(C)c2cc3[nH]c(cc4nc(cc5[nH]c(cc1n2)c(C)c5CCC(=O)O)C(CCC(=O)O)=C4C)c(C)c3C=C [PROTOPORPHYRIN IX],-20.6,0.00,-0.1,–
O=C(/C=C/c1ccc(O)c(O)c1)O[C@@H]1C[C@](O)(C(=O)O)C[C@@H](O)[C@H]1O [CHLOROGENIC ACID],-24.5,-0.13,-9.1,–
CCCCCCCCCc1ccc(O)cc1 [4-NONYLPHENOL],83.1,–,–,inhibition at 3.3 µM (Cryptosporidium parvum): -181%; Hs18S ΔCT (HCT-8 host cells (Hs18S); [2]): 0.14; cytotoxicity at 10 µM (in vitro): 9.2%
CCN1C[C@]2(COC)[C@H](O)C[C@H](OC)[C@@]34[C@@H]5C[C@@]6(O)[C@H](OC(=O)c7ccccc7)[C@@H]5[C@@](OC(C)=O)([C@@H]([C@H](OC)[C@H]23)[C@@H]14)[C@@H](O)[C@@H]6OC [ACONITINE],2.84,–,–,Hs18S ΔCT (HCT-8 host cells (Hs18S); [2]): -0.16; cytotoxicity at 10 µM (in vitro): -11.7%
COc1ccc([C@H]2Oc3cc(OC)cc(OC)c3C[C@H]2O)cc1 [EPIAFZELECHIN TRIMETHYL ETHER],13.8,0.21,13.4,–
CC[C@H]1CN2CCc3cc(OC)c(OC)cc3[C@@H]2C[C@@H]1C[C@H]1NCCc2cc(OC)c(OC)cc21 [EMETINE DIHYDROCHLORIDE],97.3,–,–,"inhibition at 3.3 µM (Cryptosporidium parvum): 95%; Hs18S ΔCT (HCT-8 host cells (Hs18S); [2]): 1.41; cytotoxicity at 41 h, 10 µM (in vitro): 62.4%"
C[C@H]1C(=O)CC[C@@H]2[C@]1(C)CC[C@H]1[C@@]2(C)CC[C@@]2(C)[C@@H]3CC(C)(C)CC[C@]3(C)CC[C@]12C [FRIEDELIN],20.8,–,–,Hs18S ΔCT (HCT-8 host cells (Hs18S); [2]): -0.23; cytotoxicity at 10 µM (in vitro): -17.6%
COc1cc2c(cc1OC)C(=O)OC2 [METAMECONINE],24.5,0.33,20.2,–
COc1cc2c(cc1OC)C1(O)C(=O)c3ccc(O)c(C(=O)O)c3OC1CO2 (stereo not drawn) [12a-HYDROXY-9-DEMETHYLMUNDUSERONE-8-CARBOXYLIC ACID],0.54,–,–,Hs18S ΔCT (HCT-8 host cells (Hs18S); [2]): 0.06; cytotoxicity at 10 µM (in vitro): 4.1%
NC[C@H]1O[C@H](O[C@H]2[C@H](O)[C@@H](O[C@H]3O[C@H](CO)[C@@H](O)[C@H](N)[C@H]3O)[C@H](N)C[C@@H]2N)[C@H](O)[C@@H](O)[C@@H]1O [KANAMYCIN A SULFATE],29.3,-0.31,-23.9,–
CO[C@H]1C[C@H](O[C@H]2[C@H](C)[C@@H](O[C@@H]3O[C@H](C)C[C@H](N(C)C)[C@H]3O)[C@@H](C)C[C@@]3(CO3)C(=O)[C@H](C)[C@@H](O)[C@@H](C)[C@@H](C)OC(=O)[C@@H]2C)O[C@@H](C)[C@@H]1O [OLEANDOMYCIN PHOSPHATE],17.6,3.02,87.6,–
COc1c(O)cccc1O [2-METHOXYRESORCINOL],20.3,-0.20,-15,–
COC(=O)c1c(C)cc(OC(=O)c2c(C)cc(O)c(C=O)c2O)c(C)c1O [ATRANORIN],-45.9,1.02,50.7,–
